Measurements taken from BigSolDB 2.1.

Oc1ccc(OCc2ccccc2)cc1
solubility (mole fraction)
Details	283.15 K	288.15 K	293.15 K	298.15 K	303.15 K	308.15 K	313.15 K
in 1,4-dioxane	–	0.0903	0.131	0.19	0.258	0.342	0.435
in acetonitrile	0.036	0.0447	0.0546	0.0669	0.0821	0.101	0.125
in cyclohexane	0.000542	0.000933	0.00156	0.00261	0.00396	0.0058	0.00802
in ethanol	0.0319	0.0396	0.0484	0.0595	0.0735	0.0905	0.111
in ethyl acetate	0.0773	0.129	0.201	0.293	0.399	0.519	0.632
in isopropanol	0.0317	0.0383	0.0476	0.0585	0.0736	0.0921	0.116
in methanol	0.0381	0.0476	0.0593	0.0739	0.0908	0.111	0.136
in n-butanol	0.0227	0.0282	0.0346	0.0434	0.0543	0.0666	0.0835
in n-hexane	0.000327	0.000453	0.000749	0.00108	0.00161	0.00226	0.00313
in n-octanol	0.00719	0.0101	0.0136	0.0171	0.0224	0.0289	0.0355
in n-propanol	0.0287	0.0352	0.0428	0.0521	0.0642	0.0794	0.0994
in water	5e-06	7e-06	9e-06	1.3e-05	1.7e-05	2.3e-05	3e-05
